Experimental data as given in ChEMBL document CHEMBL3112424, “Discovery and optimization of pyrimidone indoline amide PI3Kβ inhibitors for the treatment of phosphatase and tensin homologue (PTEN)-deficient cancers” (J Med Chem, 2014).
pEC50: −log10 of the molar value.

Legend:
[1] = tested on: Mus musculus; experiment: In vivo inhibition of PI3Kbeta in tumor of po dosed SCID mouse xenografted with BRAF-V600E/PTEN-deficient human UACC62 cells assessed as inhibition of Akt phosphorylation at S473; format: functional, organism-based; details: UACC-62
[2] = tested on: Mus musculus; experiment: In vivo inhibition of PI3Kbeta in tumor of po dosed SCID mouse xenografted with PTEN-deficient human PC3 cells assessed as inhibition of Akt phosphorylation at S473; format: functional, organism-based; details: PC-3
[3] = Apparent terminal half life in Balb/c mouse plasma at 10 mg/kg, po by LC-MS/MS analysis; format: ADME, organism-based; parameters: dose 10 mg/kg, route oral; details: read-out: betat1/2(app) (converted)

What does the source list for `C[C@H]1Cc2ccccc2N1C(=O)Cc1nc(N2CCOCC2)cc(=O)[nH]1` [SAR-260301]?
pEC50 [1]: 5.34; pEC50 [2]: 6.17; half-life [3]: 1.4 h
